Source: patent US10842776B2, “Hycanthone derivatives and Primaquine derivatives for use in the prevention and/or the treatment of disorders associated to gammaherpesvirus” (priority 2016, dated 2020)
Counter-ions that a name gives are not always drawn.

Legend:
[1] = system: phosphorylation of IκB (NF-κB pathway) in BC-3 PEL cell line; test: IκB phosphorylation, western blot; type: cell-based, human; conditions: 10 μM, pre-treated for 6 and 12 h, BC-3 cells
Procedure: BC-3 cells were pre-treated for 6 h (A) and 12 h (B) with primaquine and hycanthone at 10 μM. DDTC was used as positive control. Whole-cell lysates were prepared as described in Materials and Methods of example F and used for p-IκB western blot analysis by using the appropriate antibodies. […] Treatment of BC-3 cells with DDTC (diethyldithiocarbamate) was carried out in the same conditions and served as a positive control.
BC-3, an HHV-8 positive lymphoblastic cell line (ATCC CRL-2277) and RAMOS, an human Burkitt's lymphoma cell line (ATCC CRL-1596), were routinely maintained in RPMI 1640 medium supplemented with 10% fetal heat-inactivated bovine serum (FBS), and antibiotics (Sigma Chemical Co., St. Louis, Mo.) in a 5% CO2 incubator at 37° C. To prepare whole cell extracts, the cells were washed with cold phosphate-buffered saline twice and lysed in lysis RIPA buffer containing 10 mM Tris-HCl, pH 8.0, 140 mM NaCl, 1% Triton X-100, 1 mM EDTA, 0.5 mM EGTA, 0.1% sodium deoxycholate, 0.1% SDS, supplemented with protease inhibitor mixture (1 mM PMSF, 10 mM β-glycerophosphate, 10 mM NaF, 1 mM sodium orthovanadate, 1 mM sodium pyrophosphate), (ThermoFisher Scientific) at 4° C. for 30 min. […] The supernatants were collected as whole cell extracts, and protein concentration was determined by the Lowry method. […]

[2] = system: caspase 3/7 activity in BC-3 cells; test: Induction of caspase 3/7 activity (apoptosis); type: cell-based, human; conditions: 10 μM, 24 h
Procedure: Apoptosis induction was evaluated 24 h after the treatment started by measuring caspase 3/7 activity in treated- or untreated control BC-3 cells. […] DDTC is used as a positive inducer of caspase 3/7 activity in BC-3 cell lines (Matsuno et al., 2012, Int J Oncol 40: 1071-1078).
BC-3 cells (10000 cells/well) were incubated 24 h with a concentration of 10 μM of Primaquine diphosphate (Sigma), Hycanthone (Sigma), or Diethyldithiocarbamate (DDTC) (Sigma), and then lysed and a 3/7 Reagent (DEVD) is added. Lysed cells release caspase-3 or -7, which cleave the DEVD substrate from the aminoluciferin. Finally, the oxidation of the luciferin by luciferase produces light, which is measured by a luminometer. The amount of light produced is proportional to the amount of caspase-3 or -7 activity. […] (DDTC) (Sigma) known to induce apoptosis in BC-3 cells via the inhibition of NF-κB is used as positive control.

BC-3 xenograft (PEL) = test: Primary Effusion Lymphoma xenograft model in immunodeficient NOD/SCID mice; type: in vivo
Procedure: (§1) Primaquine efficacy was evaluated using a mice model of immunodeficient NOD/SCID mice. […] Mice weight was measured at various times (D6, D13, D20 and D24) after the treatment started.
Note the large growth tumor in the abdomen of the mouse that received BC-3 xenograft (“BC-3”) but not treated by primaquine.
At baseline, mice are inoculated with a PEL cell line (BC-3) by intraperitoneal (i.p) injection. One day after injection of BC-3 cells, Primaquine is administered by intraperitoneal injection, and then 3 times a week during 8 weeks. Tumoral burden is evaluated by the measure of weight every weeks (References: T. Matsuno, 2012: Diethyldithiocarbamate induces apoptosis in HHV-8-infected primary effusion lymphoma cells via inhibition of the NF-κB pathway; K. A. Sarosiek, 2010: Efficacy of bortezomib in a direct xenograft model of primary effusion lymphoma; W. Wu, 2005: Inhibition of HHV-8/KSHV infected primary effusion lymphomas in NOD/SCID mice by azidothymidine and interferon).
The experiment was conducted on 24 NOD/SCID mice (4 groups of 6 mice) (Charles River laboratories): 1 group (Mock) without xenograft (no BC-3) and non-treated (no Primaquine), 1 group with xenograft (BC-3) and non-treated (no Primaquine), 1 group with xenograft (BC-3) and treated (Primaquine 12.5 mg/kg; (Sigma), 1 group without xenograft and treated (Primaquine 12.5 mg/kg; (Sigma). […]

BC-3 cells = test: Cell growth inhibition; type: cell-based, human; conditions: 10 μM, D0 to D3, versus BC3 cells cultured in standard conditions
Procedure: Cell growth was measured every day from the day of treatment (DO) until 3 days after the treatment started (D3).
BC-3 cells were grown in RPMI-1640 GlutaMAX (Gibco) supplemented with 10% fetal bovine serum and antibiotics (amikacine and vancomycine) during 3 days. The number of cells per milliliter is measured at baseline, DO, D2 and D3. BC-3 were cultured with and without primaquine and Hycanthone.

[3] = Toxicity of Primaquine in NOD/SCID mice; type: in vivo; conditions: 12.5 mg/kg, after 24 days of treatment
Procedure: as §1
The experiment was conducted on 24 NOD/SCID mice (4 groups of 6 mice) (Charles River laboratories): 1 group (Mock) without xenograft (no BC-3) and non-treated (no Primaquine), 1 group with xenograft (BC-3) and non-treated (no Primaquine), 1 group with xenograft (BC-3) and treated (Primaquine 12.5 mg/kg; (Sigma), 1 group without xenograft and treated (Primaquine 12.5 mg/kg; (Sigma).
At the beginning of the experiments, the mice were 6 weeks old according to previous experiments conducted and available in the literature. Animals had 7 to 10 days of acclimatization before experiment. At baseline, 20.10^6 of BC3 cells in 500 μL of PBS were injected by i.p. in order to induce the development of PEL. Tumor growth is correlated with the total gain of weight. The consequent gain of weight should not exceed 150% of the baseline weight. For the group of mice […] by Primaquine, each mice received 1 i.p injection of 500 μL of PBS instead of BC-3 cells in order to evaluate the toxicity of Primaquine in mice.

[4] = system: BC-3 cells (HHV8 infected PEL cell line); test: Cell viability (ATP quantitation, CellTiter Glo) of HHV8-infected cells; type: cell-based, human; conditions: 10 μM, 48 h, HHV8 infected BC-3 cells
Procedure: (§2) HHV8 infected cell line (BC3), HHV8-non infected cell lines (MRC5, HeLa P4), and HHV8 non infected primary cells (human keratinocytes, human cutaneous fibroblasts, B-type lymphocytes CD19+) were grown in vitro and treated by either Primaquine diphosphate, Hycanthone, Paclitaxel or Doxorubicin hydrochloride at a concentration of 10 μM. Cell viability was evaluated by ATP quantitation 48 h after the treatment started.
(§3) The effect of Primaquine diphosphate (Sigma), Hycanthone (Sigma), Paclitaxel (Sigma), and Doxorubicin (Sigma) were evaluated on relevant primary cells and cell lines that are or not infected by HHV-8.
• BC-3: cell line established from pleural effusion from a human immunodeficiency virus (HIV) negative patient diagnosed with primary effusion lymphoma (PEL). […]
(§4) Cells were treated in vitro with either Primaquine diphosphate (Sigma), Hycanthone (Sigma), Paclitaxel (Sigma), or Doxorubicin hydrochloride (Sigma) at a concentration of 10 μM. The viability of the cells was evaluated 48 h after the treatment started as previously described with the Kit CellTiter Glo (Promega).

[5] = system: MRC-5, primary cutaneous fibroblasts, primary keratinocytes, Hela P4; conditions: human, 48 h, 10 μM
Procedure: as §2, §3
• BC-3: cell line established from pleural effusion from a human immunodeficiency virus (HIV) negative patient diagnosed with primary effusion lymphoma (PEL). BC-3 cell line is HHV8 infected but not infected for Epstein-Barr virus (EBV) as well as for herpes simplex virus 1 &2 (HSV-1 & HSV-2) and cytomegalovirus (CMV) (ATCC), • MRC5: Cell line derived from normal lung tissue of a […] fetus (ATCC), • Primary cutaneous fibroblasts (Lonza ref CC 25 11), • Primary keratinocytes (Lonza ref 00 192 627), • HeLa: immortal cell line established from an adult human cervical cancer HVP-18 infected (NIH Reagent program), • Primary B-type lymphocytes CD19+: primary B cells positively selected using CD19 microbeads (Miltenyi).
as §4

| SMILES | phosphorylation of IκB [1] | apoptosis (caspases 3/7 activation) versus non-treated control [2] | reduction of the median gain of weight (BC-3 xenograft (PEL); 12.5 mg/kg i.p. 3 times a week, D24, versus untreated mice with BC-3 xenograft) | growth tumor in the abdomen (BC-3 xenograft (PEL); 12.5 mg/kg, after 24 days of treatment, picture versus untreated BC-3 mouse) | cellular growth of BC3 (BC-3 cells) | toxicity in mice [3] | cell death in BC-3 cells [4] | toxicity (cell death) in other cell types non infected by HHV8 [5] |
| --- | --- | --- | --- | --- | --- | --- | --- | --- |
| COc1cc(NC(C)CCCN)c2ncccc2c1 (stereo not drawn) [Primaquine diphosphate, Primaquine] | dramatically reduced | at least as equivalent of that induced by DDTC | 39.4% | reduced growth tumor | inhibited cellular growth | did not show any toxicity | – | – |
| COc1cccc2c1C(=O)c1c(O)c3c(c(O)c1C2=O)C[C@@](O)(C(=O)CO)C[C@@H]3O[C@H]1C[C@H](N)[C@H](O)[C@H](C)O1 [doxorubicin, Doxorubicin hydrochloride] | – | – | – | – | – | – | induced cell death | > 20% |
| CC(=O)O[C@H]1C(=O)[C@@]2(C)[C@H]([C@H](OC(=O)c3ccccc3)[C@]3(O)C[C@H](OC(=O)[C@H](O)[C@@H](NC(=O)c4ccccc4)c4ccccc4)C(C)=C1C3(C)C)[C@]1(OC(C)=O)CO[C@@H]1C[C@@H]2O [Paclitaxel] | – | – | – | – | – | – | induced cell death | > 20% |
| CCN(CC)C(=S)S [DDTC, Diethyldithiocarbamate] | – | 4 times | – | – | – | – | – | – |
| CCN(CC)CCNc1ccc(CO)c2sc3ccccc3c(=O)c12 [Hycanthone] | dramatically reduced | at least as equivalent of that induced by DDTC | – | – | inhibited cellular growth | – | – | < 20% |
